Results on 38 compounds are retold here after ChEMBL document CHEMBL2062363, “Ligand-based design, in silico ADME-Tox filtering, synthesis and biological evaluation to discover new soluble 1,4-DHP-based CFTR activators” (Eur J Med Chem, 2012).

A value given as a limit tells only on which side of the number the result lay.

One may read the inhibition as the percentage by which the read-out fell short of the control. The low end stands for a response near the control, the high end for a response far below the control.

The target of data set [1] is L-type voltage-dependent Ca2+ channel (Homo sapiens, UniProt O60840+Q01668+Q13698+Q13936). Nature of the data set: Inhibition of L-type voltage-dependent Ca2+ channel at 1 uM.
A short description of data set [2]: Potentiation of forskolin-induced CFTR deltaF508 mutant expressed in FRT cells co-expressing halide-sensitive YFP-H148Q/I152L by fluorescence quenching assay. The format is cell-based, Homo sapiens.
Data set [3] is described as follows: Induction of nitric oxide release in phosphate buffer at pH 7.4 at 10^-4 M after 1 hr by Griess reaction presence of L-cysteine. The format is physicochemical. The note with it: pH 7.4, 1 h, 100 µM. On the technique in general: Nitrite, measured by Griess reagent, commonly stands in for NO production.

As for `CCOC(=O)C1=C(C)NC(C)=C(C(=O)OCC)C1c1ccc([N+](=O)[O-])cc1`, the inhibition at 1 µM in data set [1] was found to be 47.4%. Further, in data set [2], the “pEC50 for potentiation of CFTR deltaF508 (activation potency)” value (“pEC50 for potentiation of CFTR deltaF508” for short) was 5.71.

In turn, `COCCOC(=O)C1=C(C)N=C(C)/C(=C(/O)OCCOC)C1/C=C/c1ccccc1OC` (stereo unspecified) came in with an inhibition at 1 µM in data set [1] of 10.6%. In addition, the “pEC50 for potentiation of CFTR deltaF508” value in data set [2] came to 6.1.

In turn, `C=CCO/C(O)=C1\C(C)=NC(SCC)=C(C#N)C1c1ccc(Cl)cc1` (stereo unspecified) had an inhibition at 1 µM in data set [1] of 29.7%. In data set [2], the “pEC50 for potentiation of CFTR deltaF508” value is given as 5.58.

`CCOC(=O)C1=C(C)NC(C)=C(C(=O)OCC)C1c1cccc(Oc2ccccc2)c1`: in data set [1], testing at 1 µM gave an inhibition of 43.2%. In data set [2], the “pEC50 for potentiation of CFTR deltaF508” value is recorded as 6.59.

Consider `C=CCOC(=O)C1=C(C)NC(C)=C(C(=O)OCC=C)C1/C=C/c1ccccc1OC`, for which 1 µM produced 18% inhibition in data set [1]. In addition, the “pEC50 for potentiation of CFTR deltaF508” value in data set [2] came out at 6.49.

In data set [1], `COC(=O)C1=C(C)N(C)C(C)=C(C(=O)OC)C1c1ccccc1Cl` returned an inhibition at 1 µM of 50.6%. Also, in data set [2], the “pEC50 for potentiation of CFTR deltaF508” value came to 5.44.

In the case of `COC(=O)C1=C(C)N(C)C(C)=C(C(=O)OC)C1c1ccc(Cl)c(Cl)c1`, the inhibition at 1 µM in data set [1] amounted to 45.6%. For the same compound, in data set [2], the “pEC50 for potentiation of CFTR deltaF508” value worked out at 4.89.

`CCOC(=O)C1=C(C)NC(C)=C(C(=O)OCC)C1c1ccc(C(C)C)cc1` yielded an inhibition at 1 µM in data set [1] of 30.8%. Besides, the “pEC50 for potentiation of CFTR deltaF508” value in data set [2] was found to be 6.22.

`CC1=C(C(=O)OC(C)C)C(c2ccc(F)cc2)C(C(=O)OC(C)C)=C(C)N1` yielded an inhibition at 1 µM in data set [1] of 96.8%. In data set [2], the “pEC50 for potentiation of CFTR deltaF508” value is given as 6.52.

`C=CCOC(=O)C1=C(C)NC(C)=C(C(=O)OCC=C)C1c1cccc([N+](=O)[O-])c1` had an inhibition at 1 µM in data set [1] of 100%. For the same compound, the “pEC50 for potentiation of CFTR deltaF508” value in data set [2] is 6.92.

For `C=CCOC(=O)C1=C(C)NC(C)=C(C(=O)OCC=C)C1c1ccc(OC)c(OC)c1`, the inhibition at 1 µM in data set [1] was 28.7%. Also, the “pEC50 for potentiation of CFTR deltaF508” value in data set [2] amounted to 5.55.

`C=CCOC(=O)C1=C(C)NC(C)=C(C(=O)OCC=C)C1c1ccc(O)c(OCC)c1` showed an inhibition at 1 µM in data set [1] of 63.6%. Further, in data set [2], the “pEC50 for potentiation of CFTR deltaF508” value is given as 6.46.

The compound `C=CCOC(=O)C1=C(C)NC(C)=C(C(=O)OCC=C)C1c1ccc(C(C)C)cc1` gave an inhibition at 1 µM in data set [1] of 64%. Also, the “pEC50 for potentiation of CFTR deltaF508” value in data set [2] is reported as 6.6.

Consider `C=CCOC(=O)C1=C(C)NC(C)=C(C(=O)OCC=C)C1c1ccc(C)cc1`, for which the inhibition at 1 µM in data set [1] was 55.7%. Besides, in data set [2], the “pEC50 for potentiation of CFTR deltaF508” value is 6.3.

In data set [1], `CCOC(=O)C1=C(C)NC(C)=C(C(=O)OCC)C1c1c(F)cccc1Cl` displayed an inhibition at 1 µM of 100%. In data set [2], the “pEC50 for potentiation of CFTR deltaF508” value amounted to 6.44.

For the compound `COC(=O)C1=C(C)NC(C)=C(C(=O)OC)C1c1ccc(C(C)(C)C)cc1`, testing at 1 µM in data set [1] gave an inhibition of 20.9%. Besides, the “pEC50 for potentiation of CFTR deltaF508” value in data set [2] is recorded as 5.52.

In turn, `COCCOC(=O)C1=C(C)NC(C)=C(C(=O)OCCOC)C1c1ccc(-c2cccc(Cl)c2Cl)o1` gave an inhibition at 1 µM in data set [1] of 44.9%. The “pEC50 for potentiation of CFTR deltaF508” value in data set [2] came to 5.7.

`CCN(CC)c1ccc(C2C(C(=O)OC)=C(C)NC(C)=C2C(=O)OC)cc1`: the inhibition at 1 µM in data set [1] was found to be 7.1%. Also, in data set [2], the “pEC50 for potentiation of CFTR deltaF508” value was 5.92.

In data set [1], `C=CCOC(=O)C1=C(C)NC(C)=C(C(=O)OCC=C)C1c1ccc(Cl)cc1Cl` displayed an inhibition at 1 µM of 81%. For the same compound, the “pEC50 for potentiation of CFTR deltaF508” value in data set [2] was found to be 6.4.

The compound `COC(=O)C1=C(C)NC(C)=C(C(=O)OC)C1c1ccccc1` displayed an inhibition at 1 µM in data set [1] of 70.5%. In addition, the “pEC50 for potentiation of CFTR deltaF508” value in data set [2] is recorded as 5.77.

For the compound `C=CCOC(=O)C1=C(C)NC(SC)=C(C#N)C1c1ccc(Cl)cc1` (stereo unspecified), in data set [1], 1 µM produced 36.7% inhibition. Moreover, in data set [2], the “pEC50 for potentiation of CFTR deltaF508” value amounted to 6.26.

In the case of `CCCCOc1ccc(C2C(C(=O)OCC)=C(C)NC(C)=C2C(=O)OCC)cc1`, in data set [1], testing at 1 µM gave an inhibition of 9.6%. In addition, the “pEC50 for potentiation of CFTR deltaF508” value in data set [2] turned out to be 5.52.

Take `COC(=O)C1=C(C)NC(C)=C(C(=O)OC)C1c1cccc(F)c1`: in data set [1], 1 µM produced 91.9% inhibition. Besides, the “pEC50 for potentiation of CFTR deltaF508” value in data set [2] turned out to be 6.21.

`CCOC(=O)C1=C(C)NC(SC)=C(C#N)C1c1ccccc1` (stereo unspecified): in data set [1], the inhibition at 1 µM was 23.4%. Further, the “pEC50 for potentiation of CFTR deltaF508” value in data set [2] was 5.3.

For the compound `C=CCOC(=O)C1=C(C)NC(C)=C(C(=O)OCC=C)C1c1ccc(N(C)C)cc1`, the inhibition at 1 µM in data set [1] was 23.9%. The “pEC50 for potentiation of CFTR deltaF508” value in data set [2] was 5.82.

On to `C=CCOC(=O)C1=C(C)NC(C)=C(C(=O)OCC=C)C1c1ccc(C(=O)OC)cc1`, for which at 1 µM the inhibition in data set [1] was 7.8%. In addition, the “pEC50 for potentiation of CFTR deltaF508” value in data set [2] is reported as 5.52.

`C=CCOC(=O)C1=C(C)NC(C)=C(C(=O)OCC=C)C1c1ccccc1Cl` showed an inhibition at 1 µM in data set [1] of 100%. Further, the “pEC50 for potentiation of CFTR deltaF508” value in data set [2] was determined as 6.74.

For `C=CCOC(=O)C1=C(C)NC(C)=C(C(=O)OCC=C)C1c1cccc(Cl)c1`, in data set [1], testing at 1 µM gave an inhibition of 100%. For the same compound, the “pEC50 for potentiation of CFTR deltaF508” value in data set [2] came to 6.82.

The compound `CCOC(=O)C1=C(C)NC(C)=C(C(=O)OCC)C1c1ccc2c(c1)OCO2` had an inhibition at 1 µM in data set [1] of 38.2%. Further, the “pEC50 for potentiation of CFTR deltaF508” value in data set [2] worked out at 5.77.

`CC1=C(C(=O)OC(C)C)C(c2ccc(C)cc2)C(C(=O)OC(C)C)=C(C)N1`: the inhibition at 1 µM in data set [1] came to 47%. Also, the “pEC50 for potentiation of CFTR deltaF508” value in data set [2] is 6.27.

Take `COC(=O)C1=C(C)NC(C)=C(C(=O)OC)C1c1ccc(-c2ccc(Cl)c(Cl)c2)o1`: at 1 µM the inhibition in data set [1] was 8.3%. Also, the “pEC50 for potentiation of CFTR deltaF508” value in data set [2] was 5.51.

With `COC(=O)C1=C(C)NC(C)=C(C(=O)OC)C1c1ccc(I)cc1`, in data set [1], at 1 µM the inhibition was 12.3%. In data set [2], the “pEC50 for potentiation of CFTR deltaF508” value came to 6.34.

`COC(=O)C1=C(C)NC(C)=C(C(=O)OC)C1c1ccc(-c2cccc(Cl)c2Cl)o1` showed an inhibition at 1 µM in data set [1] of 10.3%. Besides, the “pEC50 for potentiation of CFTR deltaF508” value in data set [2] is 5.43.

In data set [1], `C=CCOC(=O)C1=C(C)NC(C)=C(C(=O)OCC=C)C1c1ccc(OC)cc1` displayed an inhibition at 1 µM of 37.2%. Also, the “pEC50 for potentiation of CFTR deltaF508” value in data set [2] is recorded as 6.3.

As to `C=CCOC(=O)C1=C(C)NC(C)=C(C(=O)OCC=C)C1c1ccc(I)cc1`, 1 µM produced 37.5% inhibition in data set [1]. Also, the “pEC50 for potentiation of CFTR deltaF508” value in data set [2] worked out at 5.77.

In data set [1], `COC(=O)C1=C(C)NC(C)=C(C(=O)OC)C1c1ccc(OCc2ccccc2)cc1` displayed an inhibition at 1 µM of 22.5%. Moreover, the “pEC50 for potentiation of CFTR deltaF508” value in data set [2] turned out to be 5.46.

With `COC(=O)C1=C(C)NC(C)=C(C(=O)OCCCO[N+](=O)[O-])C1c1cccc([N+](=O)[O-])c1` (stereo unspecified), the Activity in data set [3] is on record as less than 0.5%. Further, the “pEC50 for potentiation of CFTR deltaF508” value in data set [2] worked out at 5.88.

Turning to `CC1=C(C(=O)OCCCO[N+](=O)[O-])C(c2cccc([N+](=O)[O-])c2)C([N+](=O)[O-])=C(C)N1` (racemic), in data set [3], the Activity is reported as less than 0.5%. Also, in data set [2], the “pEC50 for potentiation of CFTR deltaF508” value amounted to 5.07.
